Literature values in US8318788B2, “Layered pharmaceutical formulations” (priority 2006, dated 2012).
One block for each compound: values may come before it.

Assays:
[1] = patients presenting primary obesity

bioavailability (in vivo): approximately 72%
physiological half life (in vivo): about 24 hours
plasma protein binding (mostly albumin): highly bound to plasma proteins
SMILES: CNCCC(Oc1ccc(C(F)(F)F)cc1)c1ccccc1 (stereo not drawn) [Fluoxetine, N-methyl-3-phenyl-3-[4-(trifluoromethyl)phenoxy]-propan-1-amine]

SMILES: Cc1cc2c(s1)Nc1ccccc1N=C2N1CCN(C)CC1 [Olanzapine, 2-methyl-4-(4-methyl-1-piperazinyl)-10H-thieno[2,3-b][1,5]benzodiazepine]
effect of food on bioavailability (in vivo): not affected by food
first pass metabolism (in vivo): extensive first pass metabolism
kinetics (in vivo): linear kinetics
time until steady state plasma concentrations are achieved (in vivo): about a week

inhibitory effect on carbonic anhydrase (carbonic anhydrase): weak inhibitory effect
SMILES: NS(=O)(=O)Cc1noc2ccccc12 [Zonisamide]
weight loss [1]: significant weight loss
